Species: Rattus norvegicus
Test: DrugMatrix - Regimen: Daily Repeat
Assay type: toxicity, organism-based, Sprague-Dawley
Parameters: regimen Daily Repeat, gender Male, age 6-8 weeks
Conditions: in vivo, […]; for NEUTROPHIL / PLATELET COUNT / ABSOLUTE BASOPHIL / ABSOLUTE EOSINOPHIL / ABSOLUTE LYMPHOCYTE / ABSOLUTE MONOCYTE / ABSOLUTE SEGMENTED NEUTROPHIL / BASOPHIL / EOSINOPHIL / ERYTHROCYTE COUNT / HEMATOCRIT / HEMOGLOBIN / LEUKOCYTE COUNT / LYMPHOCYTE / MEAN CORPUSCULAR HEMOGLOBIN / MEAN CORPUSCULAR HEMOGLOBIN CONCENTRATION / MEAN CORPUSCULAR VOLUME / MONOCYTE / NUCLEATED RED BLOOD CELLS: tissue Blood; for ALANINE AMINOTRANSFERASE / ALBUMIN / ALKALINE PHOSPHATASE / ASPARTATE AMINOTRANSFERASE / BLOOD UREA NITROGEN / CHLORIDE / CHOLESTEROL / CREATINE PHOSPHOKINASE / CREATININE / GLUCOSE / LACTATE DEHYDROGENASE / LIPASE / PHOSPHORUS / POTASSIUM / TOTAL BILIRUBIN / TOTAL PROTEIN / URIC ACID / SODIUM / CARBON DIOXIDE: tissue Plasma
[1] = ip, 2 mg/kg, route intraperitoneal, dose level High, time 28 day, vehicle 100 % SALINE
[2] = ip, 2 mg/kg, route intraperitoneal, dose level High, time 14 day, vehicle 100 % SALINE
[3] = po, 66 mg/kg, 72 h, route oral GAVAGE, dose level High, time 3 day
[4] = po, 66 mg/kg, 120 h, route oral GAVAGE, dose level High, time 5 day
[5] = po, 72 h, route oral GAVAGE, dose 6.6 mg/Kg, dose level Low, time 3 day
[6] = po, 120 h, route oral GAVAGE, dose 6.6 mg/Kg, dose level Low, time 5 day

## CADMIUM DICHLORIDE
[1]
  NEUTROPHIL: 24.62%
  PLATELET COUNT: 1656.44 x10E3/uL
  ALANINE AMINOTRANSFERASE: 39.44 u/L
  ALKALINE PHOSPHATASE: 111 u/L
  ASPARTATE AMINOTRANSFERASE: 167.44 u/L
  BLOOD UREA NITROGEN: 19.67 mg/dL
  CHLORIDE: 108.89 MEQ/L
  CHOLESTEROL: 51.67 mg/dL
  CREATININE: 0.44 mg/dL
  GLUCOSE: 106.78 mg/dL
  LACTATE DEHYDROGENASE: 230.56 u/L
  LIPASE: 45.56 u/L
  POTASSIUM: 6.7 MEQ/L
  SODIUM: 151 MEQ/L
  TOTAL BILIRUBIN: 0.28 mg/dL
  TOTAL PROTEIN: 6.61 G/DL
  URIC ACID: 1.71 mg/dL
[2]
  ALANINE AMINOTRANSFERASE: 35.4 u/L
  ALBUMIN: 3.24 G/DL
  ALKALINE PHOSPHATASE: 169.6 u/L
  ASPARTATE AMINOTRANSFERASE: 182.2 u/L
  BLOOD UREA NITROGEN: 23.8 mg/dL
  CHLORIDE: 109.2 MEQ/L
  CHOLESTEROL: 58.2 mg/dL
  CREATINE PHOSPHOKINASE: 323 u/L
  CREATININE: 0.3 mg/dL
  GLUCOSE: 101 mg/dL
  LACTATE DEHYDROGENASE: 321.4 u/L
  LIPASE: 87.6 u/L
  PHOSPHORUS: 10.28 mg/dL
  POTASSIUM: 6.42 MEQ/L
  TOTAL BILIRUBIN: 0.26 mg/dL
  TOTAL PROTEIN: 5.94 G/DL
  URIC ACID: 2.08 mg/dL
[3]
  ABSOLUTE BASOPHIL: 0 CELLS/uL
  ABSOLUTE EOSINOPHIL: 54 CELLS/uL
  ABSOLUTE LYMPHOCYTE: 13921.33 CELLS/uL
  ABSOLUTE MONOCYTE: 108.67 CELLS/uL
  ABSOLUTE SEGMENTED NEUTROPHIL: 2549.33 CELLS/uL
  BASOPHIL: 0%
  EOSINOPHIL: 0.33%
  ERYTHROCYTE COUNT: 5.45 x10E6/uL
  HEMATOCRIT: 35.37%
  HEMOGLOBIN: 13.67 G/DL
  LEUKOCYTE COUNT: 16.63 x10E3/uL
  LYMPHOCYTE: 83.67%
  MEAN CORPUSCULAR HEMOGLOBIN: 25.13 pg
  MEAN CORPUSCULAR HEMOGLOBIN CONCENTRATION: 38.63 G/DL
  MEAN CORPUSCULAR VOLUME: 64.97 fL
  MONOCYTE: 0.67%
  NEUTROPHIL: 15.33%
  NUCLEATED RED BLOOD CELLS: 0 /100WBC
  PLATELET COUNT: 1218.67 x10E3/uL
  ALANINE AMINOTRANSFERASE: 57.67 u/L
  ALBUMIN: 4.1 G/DL
  ALKALINE PHOSPHATASE: 436 u/L
  ASPARTATE AMINOTRANSFERASE: 100 u/L
  BLOOD UREA NITROGEN: 12.33 mg/dL
  CARBON DIOXIDE: 25 mmol/L
  CHOLESTEROL: 60.33 mg/dL
  CREATINE PHOSPHOKINASE: 279.67 u/L
  CREATININE: 0.17 mg/dL
  LACTATE DEHYDROGENASE: 310 u/L
  LIPASE: 11.33 u/L
  PHOSPHORUS: 12.93 mg/dL
  POTASSIUM: 7.2 MEQ/L
  TOTAL BILIRUBIN: 0.2 mg/dL
  TOTAL PROTEIN: 5.77 G/DL
[4]
  ABSOLUTE BASOPHIL: 0 CELLS/uL
  ABSOLUTE EOSINOPHIL: 0 CELLS/uL
  ABSOLUTE LYMPHOCYTE: 13248 CELLS/uL
  ABSOLUTE MONOCYTE: 120 CELLS/uL
  ABSOLUTE SEGMENTED NEUTROPHIL: 1432 CELLS/uL
  BASOPHIL: 0%
  EOSINOPHIL: 0%
  ERYTHROCYTE COUNT: 5.79 x10E6/uL
  HEMATOCRIT: 35.4%
  HEMOGLOBIN: 14.15 G/DL
  LEUKOCYTE COUNT: 14.8 x10E3/uL
  LYMPHOCYTE: 88%
  MEAN CORPUSCULAR HEMOGLOBIN: 24.55 pg
  MEAN CORPUSCULAR HEMOGLOBIN CONCENTRATION: 39.95 G/DL
  MEAN CORPUSCULAR VOLUME: 61.35 fL
  MONOCYTE: 1%
  NEUTROPHIL: 11%
  NUCLEATED RED BLOOD CELLS: 0 /100WBC
  PLATELET COUNT: 1357 x10E3/uL
  ALANINE AMINOTRANSFERASE: 63 u/L
  ALBUMIN: 4.1 G/DL
  ALKALINE PHOSPHATASE: 217.5 u/L
  ASPARTATE AMINOTRANSFERASE: 122 u/L
  BLOOD UREA NITROGEN: 14 mg/dL
  CARBON DIOXIDE: 18.5 mmol/L
  CHLORIDE: 112 MEQ/L
  CHOLESTEROL: 36 mg/dL
  CREATINE PHOSPHOKINASE: 975 u/L
  CREATININE: 0.2 mg/dL
  GLUCOSE: 189 mg/dL
  LACTATE DEHYDROGENASE: 198.5 u/L
  LIPASE: 11.5 u/L
  POTASSIUM: 6.8 MEQ/L
  TOTAL BILIRUBIN: 0.1 mg/dL
  TOTAL PROTEIN: 5.5 G/DL
  URIC ACID: 2.35 mg/dL
[5]
  ABSOLUTE BASOPHIL: 0 CELLS/uL
  ABSOLUTE EOSINOPHIL: 0 CELLS/uL
  ABSOLUTE LYMPHOCYTE: 17172.67 CELLS/uL
  ABSOLUTE MONOCYTE: 193.33 CELLS/uL
  ABSOLUTE SEGMENTED NEUTROPHIL: 1767.33 CELLS/uL
  BASOPHIL: 0%
  EOSINOPHIL: 0%
  ERYTHROCYTE COUNT: 5.25 x10E6/uL
  HEMATOCRIT: 32.93%
  HEMOGLOBIN: 13.07 G/DL
  LEUKOCYTE COUNT: 19.13 x10E3/uL
  MEAN CORPUSCULAR HEMOGLOBIN CONCENTRATION: 39.7 G/DL
  MONOCYTE: 1%
  NUCLEATED RED BLOOD CELLS: 0 /100WBC
  PLATELET COUNT: 1216 x10E3/uL
  ALANINE AMINOTRANSFERASE: 81 u/L
  ALBUMIN: 4 G/DL
  ALKALINE PHOSPHATASE: 508.5 u/L
  ASPARTATE AMINOTRANSFERASE: 91.67 u/L
  BLOOD UREA NITROGEN: 11.67 mg/dL
  CARBON DIOXIDE: 26 mmol/L
  CHOLESTEROL: 77.33 mg/dL
  CREATINE PHOSPHOKINASE: 283.33 u/L
  CREATININE: 0.19 mg/dL
  GLUCOSE: 152.67 mg/dL
  LACTATE DEHYDROGENASE: 195 u/L
  LIPASE: 12.33 u/L
  PHOSPHORUS: 11.57 mg/dL
  POTASSIUM: 6.8 MEQ/L
  TOTAL BILIRUBIN: 0.2 mg/dL
  TOTAL PROTEIN: 5.57 G/DL
  URIC ACID: 1.3 mg/dL
[6]
  ABSOLUTE BASOPHIL: 0 CELLS/uL
  ABSOLUTE EOSINOPHIL: 0 CELLS/uL
  ABSOLUTE LYMPHOCYTE: 4729 CELLS/uL
  ABSOLUTE MONOCYTE: 0 CELLS/uL
  ABSOLUTE SEGMENTED NEUTROPHIL: 237.67 CELLS/uL
  BASOPHIL: 0%
  EOSINOPHIL: 0%
  ERYTHROCYTE COUNT: 5.13 x10E6/uL
  HEMATOCRIT: 30.77%
  HEMOGLOBIN: 12.03 G/DL
  LEUKOCYTE COUNT: 4.97 x10E3/uL
  LYMPHOCYTE: 94.67%
  MEAN CORPUSCULAR HEMOGLOBIN: 23.43 pg
  MEAN CORPUSCULAR HEMOGLOBIN CONCENTRATION: 39.13 G/DL
  MONOCYTE: 0%
  NEUTROPHIL: 5.33%
  NUCLEATED RED BLOOD CELLS: 0 /100WBC
  PLATELET COUNT: 996.33 x10E3/uL
  ALANINE AMINOTRANSFERASE: 78.67 u/L
  ALKALINE PHOSPHATASE: 485.67 u/L
  ASPARTATE AMINOTRANSFERASE: 93 u/L
  BLOOD UREA NITROGEN: 12.67 mg/dL
  CARBON DIOXIDE: 30 mmol/L
  CHOLESTEROL: 72.33 mg/dL
  CREATINE PHOSPHOKINASE: 141.33 u/L
  CREATININE: 0.16 mg/dL
  GLUCOSE: 141.33 mg/dL
  LACTATE DEHYDROGENASE: 102.33 u/L
  LIPASE: 11 u/L
  POTASSIUM: 6.24 MEQ/L
  SODIUM: 149.5 MEQ/L
  TOTAL BILIRUBIN: 0.2 mg/dL
  URIC ACID: 0.97 mg/dL

Reference: ChEMBL document CHEMBL3885881, “DrugMatrix”
